“Also recorded” adds a separate entry of the source.
Legend:
wt mice = test: Insl5 administered intraperitoneally, food intake in wt mice; format: in vivo; details: wt mice (129/SvEv), intraperitoneal, dose dependent; FIG. 9 upper panel
Protocol: (§1) To test the hypothesis that Insl5 is an orexigenic hormone directly, it was administered intraperitoneally to wt and GPR100−/− mice. […] Moreover, this effect is mediated through GPR100.

GPR100−/− mice = test: Insl5 administered intraperitoneally, feeding behaviour in GPR100−/− mice; format: in vivo; details: intraperitoneal, FIG. 9 lower panel
Protocol: as §1

GPR100 = GPR100 (Homo sapiens, UniProt Q8TDU9); details: mature Insl5; cited from earlier work
GPR100, sequence (Q8TDU9 whole entry, species assumed): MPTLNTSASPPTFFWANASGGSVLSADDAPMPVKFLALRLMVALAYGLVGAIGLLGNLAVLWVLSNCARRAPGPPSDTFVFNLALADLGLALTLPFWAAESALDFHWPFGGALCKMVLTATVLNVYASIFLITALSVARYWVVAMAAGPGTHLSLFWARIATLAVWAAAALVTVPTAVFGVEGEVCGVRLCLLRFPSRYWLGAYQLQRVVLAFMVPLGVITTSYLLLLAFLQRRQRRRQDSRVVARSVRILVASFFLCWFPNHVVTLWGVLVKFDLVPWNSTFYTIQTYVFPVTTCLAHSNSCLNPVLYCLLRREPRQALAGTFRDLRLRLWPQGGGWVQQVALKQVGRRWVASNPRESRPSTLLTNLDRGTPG

insulin-like peptide 5 [Insl5, 45 amino acid residue mature peptide comprising an A chain and a B chain connected by disulfide bonds; endogenous ligand of GPR100]
food intake (wt mice): increase of food intake; also recorded: significant increase in food intake
feeding behaviour (GPR100−/− mice): no effect on feeding behaviour
affinity in displacing relaxin-3 peptide from GPR100 (GPR100): high affinity, in the nanomolar range
